Experimental data: patent US6849649B2, “N-phenpropylcyclopentyl-substituted glutaramide derivatives as inhibitors of neutral endopeptidase” (Pfizer Inc., priority 2001, dated 2005)
Structures can show the parent of a compound that is named as a salt. Where two headings read alike, the source gives them in different places.

Experiments:
[1] = target: T1, NEP from canine kidney (Canis lupus familiaris, UniProt A0A8I3PBM8); experiment: IC50 against NEP (canine kidney); assay type: biochemical
T1 construct: determined using NEP from canine kidney; from tissue; host or cells: canine kidney
T1 sequence (A0A8I3PBM8 1-749): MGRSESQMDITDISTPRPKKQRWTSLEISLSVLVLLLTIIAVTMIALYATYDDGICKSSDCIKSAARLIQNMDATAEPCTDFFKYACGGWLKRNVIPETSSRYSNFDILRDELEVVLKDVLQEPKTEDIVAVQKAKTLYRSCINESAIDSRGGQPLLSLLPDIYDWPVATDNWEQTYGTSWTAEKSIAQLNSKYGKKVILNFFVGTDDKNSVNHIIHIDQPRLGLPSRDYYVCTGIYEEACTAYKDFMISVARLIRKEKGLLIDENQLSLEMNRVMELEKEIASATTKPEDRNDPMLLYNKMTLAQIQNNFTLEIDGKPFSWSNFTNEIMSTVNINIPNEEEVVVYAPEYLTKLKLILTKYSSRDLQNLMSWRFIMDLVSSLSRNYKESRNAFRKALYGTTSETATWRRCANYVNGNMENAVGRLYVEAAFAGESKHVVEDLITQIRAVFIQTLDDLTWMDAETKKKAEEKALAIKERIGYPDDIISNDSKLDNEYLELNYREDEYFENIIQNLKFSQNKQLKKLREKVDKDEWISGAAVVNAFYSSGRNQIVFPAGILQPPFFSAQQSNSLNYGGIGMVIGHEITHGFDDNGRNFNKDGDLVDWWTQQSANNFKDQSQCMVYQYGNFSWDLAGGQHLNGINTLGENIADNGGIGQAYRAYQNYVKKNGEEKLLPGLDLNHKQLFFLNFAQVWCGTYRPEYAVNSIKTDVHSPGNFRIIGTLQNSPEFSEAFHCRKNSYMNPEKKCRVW
Experimental: The IC50 values presented below were determined using NEP from canine kidney.

[2] = NEP from canine kidney, read-out: IC50 against NEP

Row | SMILES | melting point | IC50 [1, 2] | IC50 [1]
1 | COCCC(CC1(C(=O)NCCCc2ccc(F)cc2)CCCC1)C(=O)O (centres unmarked) [Example 4, 2-{[1-({[3-(4-fluorophenyl)propyl]amino}carbonyl)cyclopentyl]methyl}-4-methoxybutanoic acid] | – | – | 4 nM
2 | O=C(O)CCC1(C(=O)NCCCc2cccc3ccccc23)CCCC1 [Example 33] | – | 47 nM | –
3 | CC(CCNC(=O)C1(CCC(=O)O)CCCC1)c1ccc2c(c1)CCO2 (centres unmarked) [Example 51] | – | 9 nM | –

The remaining lines, values ahead:

Row | melting point | IC50 [1, 2] | IC50 [1] | SMILES
4 | 214 to 216 °C | – | – | COCCC(CC1(C(=O)NCCCc2ccc(OC)cc2)CCCC1)C(=O)O (centres unmarked) (as salt: sodium) [Example 1, 4-Methoxy-2-{[1-({[3-(4-methoxyphenyl)propyl]amino}carbonyl)cyclopentyl]-methyl}butanoic acid]
5 | – | 22 nM | – | COCCC(CC1(C(=O)NC(C)COc2ccccc2Cl)CCCC1)C(=O)O (centres unmarked) [Example 3]
6 | 94.5 to 97 °C | 3 nM | – | O=C(O)CCC1(C(=O)NCCCc2ccc3c(c2)CCO3)CCCC1 [Example 21]
7 | – | 29 nM | – | COCC[C@H](CC1(C(=O)NCCCc2ccc3c(c2)OCCO3)CCCC1)C(=O)O [Example 43]
